Measured values taken from patent publication US20260335340A1, “PHARMACEUTICAL COMPOSITION FOR TREATING LIVER CANCER COMPRISING CANNABIDIOL AND ANTICANCER AGENT AS ACTIVE INGREDIENTS AND USE THEREOF” (NEOCANNBIO CO., LTD., priority 2022, published 2026).
Where two headings read alike, the source gives them in different places.

Assays:
apoptotic proteins = experiment: Levels of apoptotic proteins in presence of Chk2 inhibitor; format: cell-based, human; conditions: with cabozantinib and CBD; FIG. 7B
Text: (§1) Next, to determine whether Chk2 activated by combined treatment with cabozantinib and CBD affects apoptosis, the anti-apoptotic effect mediated by Chk2 inhibitors was confirmed.

p53 [1] = experiment: Phosphorylation of p53 in presence of Chk2 inhibitor; format: cell-based, human; conditions: with cabozantinib and CBD; FIG. 7B
Text: as §1

HepG2 cells [2] = experiment: Apoptotic effect of combined treatment in presence of Chk2 inhibitor; format: cell-based, human; conditions: with cabozantinib and CBD; FIG. 7A
Text: as §1

HepG2 cells [3] = experiment: Combined treatment effect of cabozantinib with cannabis-related compounds (cell viability); format: cell-based; conditions: Homo sapiens, read-out: IC50 with Cabozantinib
Procedure: (§2) Cells (1.0×10^4) were seeded in 96-well plates and cultured in a medium for 24 hours. The cultured cells were treated with various concentrations of CBD and/or cabozantinib, etc., for 48 hours, and then cell viability was measured using a WST-8 assay kit (Biomax, SEOUL, Korea).
(§3) Specifically, HepG2 cells, a hepatoma cell line, were seeded at a concentration of 1×10^4 cells/well in a 96-well plate and cultured for 24 hours in an incubator at 37° C. and 10% CO2, then they were treated with cabozantinib at various concentrations and treated or not with cannabidiol (20 μM), and then cultured under the same conditions for 48 hours. After completion of the culture, 1/10 of the WST-8 solution (Quanti-Max™, BIOMAX, Korea) was added to the medium, and the culture was further conducted at 37° C. for 1 hour, the absorbance was measured at 450 nm to determine the cell viability, which was expressed as a ratio to the untreated control group. This experiment was conducted independently and repeated three times. Additionally, as positive control groups, sorafenib, lenvatinib, or regorafenib were treated instead of cabozantinib, respectively.

VEGFR2 = conditions: known; cited from earlier work
pCDH-CNR1 HepG2 cells = experiment: Cell viability in CNR1 overexpressing HepG2 cells with or without CBD; format: cell-based; conditions: Homo sapiens
Procedure: as §2
(§4) Total RNA was extracted from normal liver tissues and cDNA was synthesized to clone a tagged CNR1 and CNR2 coding gene sequences into a pCDH-CMV-EF1-puro vector. The CNR1 and CNR2 genes were amplified by PCR using specific primers including 5′-extension and NotI (NEB, Ipswich, MA, USA) and XbaI (NEB) restriction sites. CloneAmp HiFi PCR Premix ([…], San Jose, CA, USA) was used for PCR reactions. Subsequently, amplicons were obtained from the PCR products by gel extraction, digested with NotI and XbaI enzymes, and cloned into the pCDH-CMV-EF1-puro vector using the In-Fusion® cloning system according to the manufacturer's instructions.
(§5) HepG2 cells were transfected with pCDH-CMV-EF1-puro including the tagged CNR1 and CNR2 coding sequences together with gag-pol and VSV-G plasmids (plasmids 14887 and 8454, respectively; Addgene, Cambridge, MA, USA). […] To confirm the specificity and efficiency of CNR1 and CNR2 overexpression, mRNA expression levels were analyzed using RT-PCR. […]

tyrosine kinase c-Met = conditions: known; cited from earlier work
pCDH-CNR2 HepG2 cells = experiment: Cell viability in CNR2 overexpressing HepG2 cells with or without CBD; format: cell-based; conditions: Homo sapiens
Procedure: as §2, §4, §5

pCDH-Ctrl HepG2 cells = experiment: Cell viability in control vector (pCDH-Ctrl) HepG2 cells with or without CBD; format: cell-based; conditions: Homo sapiens
Procedure: as §2, §4, §5

HepG2 cells [4] = experiment: Cell viability (WST-8) of anticancer agents with or without CBD; format: cell-based, human; conditions: for IC50: Homo sapiens, HepG2, 48 h
Procedure: Human HCC cell lines (HepG2 and Hep3B) were purchased from the American Type Culture Collection (ATCC). The cell lines were cultured in MEM (Gibco, Carlsbad, MD, USA) and DMEM (Gibco) supplemented with 10% FBS (Gibco), 100 U/mL penicillin, and 100 µg/mL streptomycin, respectively.
as §2, §3

HepG2 cells [5] = experiment: Inhibition of apoptosis by L-ascorbic acid; format: cell-based, human; conditions: ER stress induced by cabozantinib and CBD; FIG. 11
Procedure: (§6) Next, the effect of L-ascorbic acid (LAA), known to alleviate ER stress, on the inhibition of P53 activation and apoptosis was investigated. As a result, it was confirmed that p53 activation and apoptosis caused by ER stress induced by combined treatment with cabozantinib and CBD were suppressed when LAA was treated (FIG. 11).

p53 [6] = experiment: Inhibition of P53 activation by L-ascorbic acid; format: cell-based, human; conditions: ER stress induced by cabozantinib and CBD; FIG. 11
Procedure: as §6

[7] = HepG2, 48 h, combined with cabozantinib
[8] = HepG2, read-out: IC50 without CBD
[9] = with 20 μM CBD, read-out: IC50 with CBD
[10] = without CBD, read-out: IC50 without CBD

In the case of `NC(=O)c1ccc2nc(-c3ccc(Oc4ccc(Cl)cc4)cc3)[nH]c2c1` [BML-277], the “effect on levels of apoptotic proteins” value (apoptotic proteins) is reported as “reduced”, the “effect on phosphorylation of p53” value (p53 [1]) is reported as “reduced the phosphorylation of p53” and the “effect on the apoptotic effect of combined treatment” value (HepG2 cells [2]) is reported as “inhibited the apoptotic effect”.

With `C=C(C)[C@@H]1CCC(C)=C[C@H]1c1c(O)cc(CCCCC)c(C(=O)O)c1O` [CBDA, cannabidiolic acid] the IC50 (HepG2 cells [3]; [7]) was 35.9 ± 1.35 µM.

For `COc1cc2nccc(Oc3ccc(NC(=O)C4(C(=O)Nc5ccc(F)cc5)CC4)cc3)c2cc1OC` [Cabozantinib], the “inhibition of VEGFR2” value (VEGFR2) is given as “inhibit tyrosine kinase c-Met and VEGFR2”, the IC50 (pCDH-CNR1 HepG2 cells; HepG2, read-out: IC50 with CBD) is given as 20.2 µM and the IC50 (pCDH-CNR1 HepG2 cells; [8]) is given as > 100 µM. For the same compound, the “inhibition of tyrosine kinase c-Met” value (tyrosine kinase c-Met) was “inhibit tyrosine kinase c-Met and VEGFR2”, the IC50 (pCDH-CNR2 HepG2 cells; HepG2, read-out: IC50 with CBD) was 18.2 µM and the IC50 (pCDH-CNR2 HepG2 cells; [8]) was > 100 µM. For the same compound, the IC50 (pCDH-Ctrl HepG2 cells; HepG2, read-out: IC50 with CBD) was 16 µM, the IC50 (pCDH-Ctrl HepG2 cells; [8]) was > 100 µM and the IC50 (HepG2 cells [4]; [9]) was 15.8 µM. The IC50 (HepG2 cells [4]; [10]) was > 100 µM and the “toxicity of cabozantinib against HepG2 cells when combine treated with cannabidiol” value (HepG2 cells [4]; vs cabozantinib alone, 20 μM CBD, 48 h, FIG. 4A) was “significantly increased”.

In the case of `O=C1O[C@H]([C@@H](O)CO)C(O)=C1O` [LAA, L-ascorbic acid], the “effect on apoptosis caused by ER stress” value (HepG2 cells [5]) is reported as “suppressed” and the “effect on p53 activation caused by ER stress” value (p53 [6]) is reported as “suppressed”.

For `COc1cc2nccc(Oc3ccc(NC(=O)NC4CC4)c(Cl)c3)c2cc1C(N)=O` [Lenvatinib], the IC50 (HepG2 cells [4]; [9]) was > 100 µM and the IC50 (HepG2 cells [4]; [10]) was > 100 µM.

`CNC(=O)c1cc(Oc2ccc(NC(=O)Nc3ccc(Cl)c(C(F)(F)F)c3)c(F)c2)ccn1` [Regorafenib] gave an IC50 (HepG2 cells [4]; [9]) of 9.74 µM and an IC50 (HepG2 cells [4]; [10]) of 14.1 µM.

`CNC(=O)c1cc(Oc2ccc(NC(=O)Nc3ccc(Cl)c(C(F)(F)F)c3)cc2)ccn1` [Sorafenib] gave an IC50 (HepG2 cells [4]; [9]) of 9.24 µM and an IC50 (HepG2 cells [4]; [10]) of 14.6 µM.

`CCCCCc1cc(O)c2c(c1)OC(C)(C)[C@@H]1CCC(C)=C[C@@H]21` [THC, tetrahydrocannabinol] gave an IC50 (HepG2 cells [3]; HepG2, 48 h) of 23.9 ± 0.55 µM.

In the case of `CCCCCc1cc2c(c(O)c1C(=O)O)[C@@H]1C=C(C)CC[C@H]1C(C)(C)O2` [THCA], the IC50 (HepG2 cells [3]; [7]) is reported as 30.4 ± 0.85 µM.
